In patent US20220380338A1, “CYCLOALKYL 3-OXOPIPERAZINE CARBOXAMIDES AND CYCLOHETEROALKYL 3-OXOPIPERAZINE CARBOXAMIDES AS NAV1.8 INHIBITORS” (Merck Sharp & Dohme LLC, priority 2021, published 2022):

Molecular target: T1, human NaV1.8 (Homo sapiens, UniProt Q9Y5Y9)
T1 construct: expressed in transfected cells
Experiment: Nav1.8 Qube® Assay (automated 384-well patch-clamp, inhibition of sodium current)
Type: cell-based
Details: human NaV1.8 channels stably expressed in HEK 293 cells, room temperature
Method in brief: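 Whole-cell voltage clamp at room temperature in HEK293 cells stably expressing NaV1.8; from −90 mV hold, 10 s 1 Hz train of 20 ms pulses to 10 mV with 980 ms repolarization to −67 mV. Peak currents of 1st and 10th pulses give resting and inactivated-state IC50s, Hill fit.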

T1 sequence (Q9Y5Y9 whole entry): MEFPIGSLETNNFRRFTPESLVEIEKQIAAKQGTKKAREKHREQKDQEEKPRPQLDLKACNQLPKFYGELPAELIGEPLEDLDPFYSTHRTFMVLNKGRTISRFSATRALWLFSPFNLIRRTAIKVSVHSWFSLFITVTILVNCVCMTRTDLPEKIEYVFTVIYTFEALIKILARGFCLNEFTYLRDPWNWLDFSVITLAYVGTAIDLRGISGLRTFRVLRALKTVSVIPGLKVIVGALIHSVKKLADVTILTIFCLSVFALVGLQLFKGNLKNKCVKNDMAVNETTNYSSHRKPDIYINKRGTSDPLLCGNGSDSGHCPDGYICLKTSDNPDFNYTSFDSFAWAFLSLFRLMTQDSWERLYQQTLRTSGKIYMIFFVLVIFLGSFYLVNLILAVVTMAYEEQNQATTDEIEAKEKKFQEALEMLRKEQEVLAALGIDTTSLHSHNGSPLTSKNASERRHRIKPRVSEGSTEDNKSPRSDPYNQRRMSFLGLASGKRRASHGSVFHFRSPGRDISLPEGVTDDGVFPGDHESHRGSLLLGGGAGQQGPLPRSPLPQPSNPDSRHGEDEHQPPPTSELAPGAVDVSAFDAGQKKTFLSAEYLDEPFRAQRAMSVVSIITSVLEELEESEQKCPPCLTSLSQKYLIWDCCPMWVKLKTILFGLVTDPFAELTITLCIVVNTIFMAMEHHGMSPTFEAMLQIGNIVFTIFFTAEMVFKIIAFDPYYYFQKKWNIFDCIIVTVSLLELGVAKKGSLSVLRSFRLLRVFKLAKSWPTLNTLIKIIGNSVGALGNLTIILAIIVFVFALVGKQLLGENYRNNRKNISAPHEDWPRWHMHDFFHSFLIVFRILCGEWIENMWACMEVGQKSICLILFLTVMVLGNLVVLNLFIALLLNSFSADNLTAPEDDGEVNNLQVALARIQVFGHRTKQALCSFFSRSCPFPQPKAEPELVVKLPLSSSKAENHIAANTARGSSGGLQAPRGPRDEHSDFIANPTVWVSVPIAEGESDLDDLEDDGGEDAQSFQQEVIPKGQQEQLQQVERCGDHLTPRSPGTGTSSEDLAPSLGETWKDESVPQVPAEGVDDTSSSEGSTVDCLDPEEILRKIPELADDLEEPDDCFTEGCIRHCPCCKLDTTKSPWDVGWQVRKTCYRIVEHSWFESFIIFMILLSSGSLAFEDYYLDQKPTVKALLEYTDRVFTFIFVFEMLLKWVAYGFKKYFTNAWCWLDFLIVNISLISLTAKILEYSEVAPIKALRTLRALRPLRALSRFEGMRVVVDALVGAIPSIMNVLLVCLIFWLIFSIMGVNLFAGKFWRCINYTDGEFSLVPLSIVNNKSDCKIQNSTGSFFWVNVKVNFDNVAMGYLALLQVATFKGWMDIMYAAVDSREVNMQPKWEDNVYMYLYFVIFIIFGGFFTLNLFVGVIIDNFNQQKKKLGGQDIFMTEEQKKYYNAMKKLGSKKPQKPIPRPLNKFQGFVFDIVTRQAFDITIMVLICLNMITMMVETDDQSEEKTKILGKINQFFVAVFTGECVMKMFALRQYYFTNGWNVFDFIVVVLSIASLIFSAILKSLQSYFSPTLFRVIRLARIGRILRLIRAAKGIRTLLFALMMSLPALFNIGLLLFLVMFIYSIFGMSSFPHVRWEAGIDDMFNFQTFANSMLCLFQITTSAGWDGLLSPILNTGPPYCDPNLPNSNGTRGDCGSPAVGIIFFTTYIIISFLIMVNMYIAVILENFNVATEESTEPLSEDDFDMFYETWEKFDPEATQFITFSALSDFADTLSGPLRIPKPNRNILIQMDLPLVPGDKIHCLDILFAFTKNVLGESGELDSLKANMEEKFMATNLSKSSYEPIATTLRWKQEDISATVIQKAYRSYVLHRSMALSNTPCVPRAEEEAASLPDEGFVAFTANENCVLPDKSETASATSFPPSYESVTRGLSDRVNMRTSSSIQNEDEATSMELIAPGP

SMILES: C[C@@H]1C(=O)NCCN1C(=O)NC(c1ccc(F)c(Cl)c1)C1CC(C(F)(F)F)C1 (single isomer, unassigned) [Example 43C, (2R)-N-((S or R)-(3-chloro-4-fluorophenyl)-(trans-3-(trifluoro-methyl)-cyclobutyl)-methyl)-2-methyl-3-oxopiperazine-1-carboxamide]
- IC50: 3.2 nM

SMILES: C[C@@H]1C(=O)NCCN1C(=O)NC(c1ccc(F)c(Cl)c1)C1CC(C(F)(F)F)C1 (single isomer, unassigned) [Example 43D, (2R)-N-((S or R)-(3-chloro-4-fluorophenyl)-(cis-3-(trifluoromethyl)-cyclobutyl)methyl)-2-methyl-3-oxopiperazine-1-carboxamide]
- IC50: 21.9 nM

SMILES: C[C@@H]1C(=O)NCCN1C(=O)NC(c1ccc(F)c(Cl)c1)C1CC(OCC(F)(F)F)C1 (single isomer, unassigned) [Example 44A, (2R)—N—((R or S)-(3-chloro-4-fluorophenyl)(cis-3-(2,2,2-trifluoroethoxy)cyclobutyl)methyl)-2-methyl-3-oxopiperazine-1-carboxamide]
- IC50: 90.5 nM

SMILES: C[C@@H]1C(=O)NCCN1C(=O)NC(c1ccc(F)c(Cl)c1)C1CC(OCC(F)(F)F)C1 (single isomer, unassigned) [Example 44B, (2R)—N—((S or R)-(3-chloro-4-fluorophenyl)(cis-3-(2,2,2-trifluoroethoxy)cyclobutyl)methyl)-2-methyl-3-oxopiperazine-1-carboxamide]
- IC50: 335 nM

SMILES: C[C@@H]1C(=O)NCCN1C(=O)NC(c1ccc(F)c(Cl)c1)C1CC(OCC(F)(F)F)C1 (single isomer, unassigned) [Example 44C, (2R)—N—((R or S)-(3-chloro-4-fluorophenyl)(trans-3-(2,2,2-trifluoroethoxy)cyclobutyl)methyl)-2-methyl-3-oxopiperazine-1-carboxamide]
- IC50: 172 nM

SMILES: C[C@@H]1C(=O)NCCN1C(=O)NC(c1ccc(F)c(Cl)c1)C1CC(OCC(F)(F)F)C1 (single isomer, unassigned) [Example 44D, (2R)—N—((S or R)-(3-chloro-4-fluorophenyl)(trans-3-(2,2,2-trifluoroethoxy)cyclobutyl)methyl)-2-methyl-3-oxopiperazine-1-carboxamide]
- IC50: 22.7 nM

SMILES: O=C1CN(C(=O)NC(c2ccc(Cl)c(C(F)(F)F)n2)C2CCC(C(F)(F)F)CC2)CCN1 (single isomer, unassigned) [Example 45A]
- IC50: 283 nM

SMILES: O=C1CN(C(=O)NC(c2ccc(Cl)c(C(F)(F)F)n2)C2CCC(C(F)(F)F)CC2)CCN1 (single isomer, unassigned) [Example 45B]
- IC50: 5.27 nM

SMILES: C[C@@H]1C(=O)NCCN1C(=O)NC(c1ccc(Cl)c(C(F)(F)F)n1)C1CCC(F)(F)CC1 (single isomer, unassigned) [Example 46A, (2R)-N-((R or S)-(5-chloro-6-(trifluoro-methyl)pyridin-2-yl)(4,4-difluoro-cyclohexyl)methyl)-2-methyl-3-oxo-piperazine-1-carboxamide]
- IC50: 343 nM

SMILES: C[C@@H]1C(=O)NCCN1C(=O)NC(c1ccc(Cl)c(C(F)(F)F)n1)C1CCC(F)(F)CC1 (single isomer, unassigned) [Example 46B, (2R)-N-((S or R)-(5-chloro-6-(trifluoro-methyl)pyridin-2-yl)(4,4-difluoro-cyclohexyl)methyl)-2-methyl-3-oxo-piperazine-1-carboxamide]
- IC50: 23.7 nM

SMILES: C[C@@H]1C(=O)NCCN1C(=O)NC(c1ccc(Cl)c(C(F)(F)F)n1)C1CC(C(F)(F)F)C1 (single isomer, unassigned) [Example 47A, (2R)—N—((R or S)-(5-chloro-6-(trifluoromethyl)pyridin-2-yl)(cis-3-(trifluoromethyl)-cyclobutyl)methyl)-2-methyl-3-oxopiperazine-1-carboxamide]
- IC50: 11.4 nM

SMILES: C[C@@H]1C(=O)NCCN1C(=O)NC(c1ccc(Cl)c(C(F)(F)F)n1)C1CC(C(F)(F)F)C1 (single isomer, unassigned) [Example 47B, (2R)—N—((R or S)-(5-chloro-6-(trifluoromethyl)pyridin-2-yl)(trans-3-(trifluoromethyl)cyclobutyl)methyl)-2-methyl-3-oxopiperazine-1-carboxamide]
- IC50: 61.8 nM

SMILES: C[C@@H]1C(=O)NCCN1C(=O)NC(c1ccc(Cl)c(C(F)(F)F)n1)C1CC(C(F)(F)F)C1 (single isomer, unassigned) [Example 47C, (2R)—N—((S or R)-(5-chloro-6-(trifluoromethyl)pyridin-2-yl)(trans-3-(trifluoromethyl)cyclobutyl)methyl)-2-methyl-3-oxopiperazine-1-carboxamide]
- IC50: 2.66 nM

SMILES: C[C@@H]1C(=O)NCCN1C(=O)NC(c1ccc(Cl)c(C(F)(F)F)n1)C1CC(C(F)(F)F)C1 (single isomer, unassigned) [Example 47D, (2R)—N—((S or R)-(5-chloro-6-(trifluoromethyl)pyridin-2-yl)(cis-3-(trifluoromethyl)-cyclobutyl)methyl)-2-methyl-3-oxopiperazine-1-carboxamide]
- IC50: 36.6 nM

SMILES: C[C@@H]1C(=O)NCCN1C(=O)NC(C)(c1ccc(F)c(Cl)c1)C1CC(C(F)(F)F)C1 (single isomer, unassigned) [Example 48A, (2R)—N—((R or S)-1-(3-chloro-4-fluorophenyl)-1-(cis-3-(trifluoromethyl)cyclobutyl)ethyl)-2-methyl-3-oxopiperazine-1-carboxamide]
- IC50: 4370 nM

SMILES: C[C@@H]1C(=O)NCCN1C(=O)NC(C)(c1ccc(F)c(Cl)c1)C1CC(C(F)(F)F)C1 (single isomer, unassigned) [Example 48B, (2R)—N—((R or S)-1-(3-chloro-4-fluorophenyl)-1-(trans-3-(trifluoromethyl)cyclobutyl)ethyl)-2-methyl-3-oxopiperazine-1-carboxamide]
- IC50: 904 nM

SMILES: C[C@@H]1C(=O)NCCN1C(=O)NC(C)(c1ccc(F)c(Cl)c1)C1CC(C(F)(F)F)C1 (single isomer, unassigned) [Example 48C, (2R)—N—((S or R)-1-(3-chloro-4-fluorophenyl)-1-(cis-3-(trifluoromethyl)cyclobutyl)ethyl)-2-methyl-3-oxopiperazine-1-carboxamide]
- IC50: 312 nM

SMILES: C[C@@H]1C(=O)NCCN1C(=O)NC(C)(c1ccc(F)c(Cl)c1)C1CC(C(F)(F)F)C1 (single isomer, unassigned) [Example 48D, (2R)—N—((S or R)-1-(3-chloro-4-fluorophenyl)-1-(trans-3-(trifluoromethyl)cyclobutyl)ethyl)-2-methyl-3-oxopiperazine-1-carboxamide]
- IC50: 515 nM

SMILES: C[C@@H]1C(=O)NCCN1C(=O)NC(c1ccc(OC(F)(F)F)c(F)c1)[C@H]1C[C@H](C(F)(F)F)C1 (single isomer, unassigned) [Example 49A]
- IC50: 4.46 nM

SMILES: C[C@@H]1C(=O)NCCN1C(=O)NC(c1ccc(OC(F)(F)F)c(F)c1)[C@H]1C[C@H](C(F)(F)F)C1 (single isomer, unassigned) [Example 49B]
- IC50: 84.6 nM

SMILES: C[C@@H]1C(=O)NCCN1C(=O)NC(c1ccc(OC(F)(F)F)cc1F)[C@H]1C[C@H](C(F)(F)F)C1 (single isomer, unassigned) [Example 50A, ((2R)-N-((R or S)-(2-fluoro-4-(trifluoro-methoxy)phenyl)(trans-3-(trifluoromethyl)-cyclobutyl)methyl)-2-methyl-3-oxopiperazine-1-carboxamide]
- IC50: 389 nM
